Active and inactive are the calls of the source.
Experiments:
SUMO-activating enzyme = SUMO-activating enzyme (Homo sapiens, UniProt Q9UBT2); test: SUMOylation inhibitor hit validation, confirmation, SUMOylation inhibitor project, biochemical, AlphaScreen (AID 2018); type: functional
[1] = Luminescence Cell-Based Dose Retest to Confirm Inhibitors of Cancer Stem Cells. [Related pubchem assays (depositor defined):AID2717, AID2721]; type: functional; conditions: Homo sapiens
Beta-galactosidase = Beta-galactosidase (Escherichia coli, UniProt Q8VNN2); test: beta-galactosidase enzyme inhibitors and activators, dose response, artefact control for CCR6 antagonist project, biochemical, E. coli enzyme, set 3 (AID 504712); type: functional
[2] = target: Heat shock protein HSP 90-alpha (Homo sapiens, UniProt P07900); type: functional, organism-based
Cytochrome P450 3A4 = Cytochrome P450 3A4 (Homo sapiens, UniProt P08684);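 note: CYP3A4 tested as one member of a cytochrome P450 panel screen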
Cytochrome P450 2D6 = Cytochrome P450 2D6 (Homo sapiens, UniProt P10635);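 note: CYP2D6 member of a cytochrome P450 panel assay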
[3] = insulin promoter down-regulators in MIN6 cells, imaging, high-content screening, mouse beta cells (AID 1628); type: functional
[4] = cytotoxicity in MIN6 insulinoma cells, dose response, cytotoxicity control, cell-based, mouse insulinoma (AID 2122); type: functional;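 note: confirmatory high-throughput counterscreen run to flag cytotoxic compounds; mouse MIN-6 beta cells carrying an insulin promoter eGFP reporter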
Tumor necrosis factor = Tumor necrosis factor (Homo sapiens, UniProt P01375); test: TNFa-triggered NF-kB activation inhibitors, SAR follow-up, cell-based, revised (AID 2337); type: functional
[5] = target: T1, Nucleotide-binding oligomerization domain-containing protein 1 (Homo sapiens, UniProt Q9Y239); test: NOD1 signaling inhibitors, SAR follow-up, revised (AID 2333); type: functional
T1 sequence (Q9Y239 whole entry): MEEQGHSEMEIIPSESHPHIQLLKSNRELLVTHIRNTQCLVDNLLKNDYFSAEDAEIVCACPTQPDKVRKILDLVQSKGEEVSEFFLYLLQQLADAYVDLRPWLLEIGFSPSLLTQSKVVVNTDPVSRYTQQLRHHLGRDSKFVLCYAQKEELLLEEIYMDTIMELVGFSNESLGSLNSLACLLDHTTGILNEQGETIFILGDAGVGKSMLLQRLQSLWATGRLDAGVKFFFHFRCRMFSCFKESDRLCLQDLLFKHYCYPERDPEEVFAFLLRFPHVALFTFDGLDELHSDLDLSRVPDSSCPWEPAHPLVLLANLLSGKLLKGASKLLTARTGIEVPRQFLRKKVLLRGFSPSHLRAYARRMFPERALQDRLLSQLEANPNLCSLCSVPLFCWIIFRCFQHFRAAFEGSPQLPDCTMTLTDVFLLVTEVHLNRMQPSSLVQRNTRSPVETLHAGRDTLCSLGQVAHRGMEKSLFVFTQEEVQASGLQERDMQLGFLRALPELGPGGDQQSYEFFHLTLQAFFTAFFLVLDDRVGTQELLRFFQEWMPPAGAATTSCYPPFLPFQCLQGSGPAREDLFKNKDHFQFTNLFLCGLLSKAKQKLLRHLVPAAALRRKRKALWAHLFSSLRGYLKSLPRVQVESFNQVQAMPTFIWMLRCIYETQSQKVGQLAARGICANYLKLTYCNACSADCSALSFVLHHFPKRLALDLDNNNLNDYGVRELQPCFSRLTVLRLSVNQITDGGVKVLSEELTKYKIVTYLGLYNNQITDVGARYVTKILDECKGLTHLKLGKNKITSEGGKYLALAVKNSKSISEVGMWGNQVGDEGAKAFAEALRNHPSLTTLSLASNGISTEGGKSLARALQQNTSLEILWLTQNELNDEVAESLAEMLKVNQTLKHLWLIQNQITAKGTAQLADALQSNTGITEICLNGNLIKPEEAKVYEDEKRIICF

[6] = cytotoxicity in HEK-293T cells, dose response, cytotoxicity control for TCR NF-kB inhibitor project, luminescence, T-cell screen hits (AID 489026); type: functional, cell-based;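 note: cells exposed to compound about 14 hours before the viability readout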
HEK293 = test: cells; conditions: Homo sapiens
SUMO E1/E2 = SUMO E1/E2 (Homo sapiens, UniProt P63279+Q9UBE0+Q9UBT2); test: SAR analysis of SUMOylation using HTRF in an in-Vitro dose response assay. [Related pubchem assays (depositor defined):AID2006, AID2011, AID2018, AID2069, AID2658]; type: functional
Cytochrome P450 2C19 = Cytochrome P450 2C19 (Homo sapiens, UniProt P33261); test: Cytochrome panel assay with activity outcomes. Panel member name: p450-cyp2c19 Compounds with AC50 equal or less than 10 uM are considered active; type: functional; conditions: read-out: AC50
Cytochrome P450 2C9 = Cytochrome P450 2C9 (Homo sapiens, UniProt P11712)
Exodeoxyribonuclease V = target: T2, Exodeoxyribonuclease V (Escherichia coli (strain K12), UniProt P04993+P07648+P08394); test: E. coli RecBCD inhibitors, dose response, counter-screen for AddAB inhibitor project, absorbance, V66 E. coli, mutant T4 phage (AID 492957); type: functional, cell-based, Escherichia coli str. K-12 substr. MG1655
T2 sequence (P04993 whole entry): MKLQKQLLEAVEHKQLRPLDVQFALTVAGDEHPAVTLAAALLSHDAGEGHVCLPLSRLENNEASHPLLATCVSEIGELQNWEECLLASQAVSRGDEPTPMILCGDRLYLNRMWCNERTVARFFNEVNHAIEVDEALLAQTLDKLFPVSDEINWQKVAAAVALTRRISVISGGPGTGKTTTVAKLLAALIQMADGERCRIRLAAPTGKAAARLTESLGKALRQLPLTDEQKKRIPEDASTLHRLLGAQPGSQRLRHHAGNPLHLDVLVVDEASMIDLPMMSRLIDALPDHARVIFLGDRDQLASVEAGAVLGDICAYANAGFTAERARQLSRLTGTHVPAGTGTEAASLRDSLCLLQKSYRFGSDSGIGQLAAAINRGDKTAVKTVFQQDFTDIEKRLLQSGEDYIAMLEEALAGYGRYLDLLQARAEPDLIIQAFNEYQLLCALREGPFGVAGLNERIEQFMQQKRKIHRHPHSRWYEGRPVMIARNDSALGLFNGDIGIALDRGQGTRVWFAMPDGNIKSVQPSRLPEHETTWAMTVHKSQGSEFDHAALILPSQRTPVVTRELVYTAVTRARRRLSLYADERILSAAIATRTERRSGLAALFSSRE
T2 sequence (P07648 whole entry): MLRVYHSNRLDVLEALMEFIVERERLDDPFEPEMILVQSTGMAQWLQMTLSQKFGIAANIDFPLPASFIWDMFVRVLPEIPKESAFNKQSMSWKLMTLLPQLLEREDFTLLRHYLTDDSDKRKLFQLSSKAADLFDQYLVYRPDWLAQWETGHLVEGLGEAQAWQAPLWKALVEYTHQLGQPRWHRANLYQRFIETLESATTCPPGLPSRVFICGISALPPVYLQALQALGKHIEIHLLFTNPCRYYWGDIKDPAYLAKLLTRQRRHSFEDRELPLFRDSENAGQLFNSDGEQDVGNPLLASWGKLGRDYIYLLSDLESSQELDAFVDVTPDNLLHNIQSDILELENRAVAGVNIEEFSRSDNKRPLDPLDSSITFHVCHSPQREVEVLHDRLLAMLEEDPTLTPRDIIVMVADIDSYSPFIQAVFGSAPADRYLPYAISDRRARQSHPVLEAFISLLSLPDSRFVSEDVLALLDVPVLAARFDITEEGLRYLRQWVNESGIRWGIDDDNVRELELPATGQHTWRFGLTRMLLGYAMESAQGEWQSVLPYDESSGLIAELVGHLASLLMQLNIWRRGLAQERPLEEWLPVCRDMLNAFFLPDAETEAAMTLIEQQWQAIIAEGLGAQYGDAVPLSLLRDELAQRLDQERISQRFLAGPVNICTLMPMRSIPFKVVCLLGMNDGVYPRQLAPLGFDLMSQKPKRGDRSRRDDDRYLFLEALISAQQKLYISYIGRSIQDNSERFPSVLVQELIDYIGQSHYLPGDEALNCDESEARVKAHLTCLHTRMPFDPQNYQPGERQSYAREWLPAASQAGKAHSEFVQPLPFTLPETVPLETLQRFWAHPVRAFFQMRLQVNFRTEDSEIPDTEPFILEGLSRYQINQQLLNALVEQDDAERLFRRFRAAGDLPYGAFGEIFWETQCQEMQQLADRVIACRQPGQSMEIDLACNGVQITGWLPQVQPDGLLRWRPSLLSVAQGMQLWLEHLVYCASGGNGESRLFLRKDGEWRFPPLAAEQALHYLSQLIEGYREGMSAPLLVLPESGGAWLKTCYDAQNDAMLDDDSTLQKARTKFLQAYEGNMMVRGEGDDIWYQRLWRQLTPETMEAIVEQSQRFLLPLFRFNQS
T2 sequence (P08394 whole entry): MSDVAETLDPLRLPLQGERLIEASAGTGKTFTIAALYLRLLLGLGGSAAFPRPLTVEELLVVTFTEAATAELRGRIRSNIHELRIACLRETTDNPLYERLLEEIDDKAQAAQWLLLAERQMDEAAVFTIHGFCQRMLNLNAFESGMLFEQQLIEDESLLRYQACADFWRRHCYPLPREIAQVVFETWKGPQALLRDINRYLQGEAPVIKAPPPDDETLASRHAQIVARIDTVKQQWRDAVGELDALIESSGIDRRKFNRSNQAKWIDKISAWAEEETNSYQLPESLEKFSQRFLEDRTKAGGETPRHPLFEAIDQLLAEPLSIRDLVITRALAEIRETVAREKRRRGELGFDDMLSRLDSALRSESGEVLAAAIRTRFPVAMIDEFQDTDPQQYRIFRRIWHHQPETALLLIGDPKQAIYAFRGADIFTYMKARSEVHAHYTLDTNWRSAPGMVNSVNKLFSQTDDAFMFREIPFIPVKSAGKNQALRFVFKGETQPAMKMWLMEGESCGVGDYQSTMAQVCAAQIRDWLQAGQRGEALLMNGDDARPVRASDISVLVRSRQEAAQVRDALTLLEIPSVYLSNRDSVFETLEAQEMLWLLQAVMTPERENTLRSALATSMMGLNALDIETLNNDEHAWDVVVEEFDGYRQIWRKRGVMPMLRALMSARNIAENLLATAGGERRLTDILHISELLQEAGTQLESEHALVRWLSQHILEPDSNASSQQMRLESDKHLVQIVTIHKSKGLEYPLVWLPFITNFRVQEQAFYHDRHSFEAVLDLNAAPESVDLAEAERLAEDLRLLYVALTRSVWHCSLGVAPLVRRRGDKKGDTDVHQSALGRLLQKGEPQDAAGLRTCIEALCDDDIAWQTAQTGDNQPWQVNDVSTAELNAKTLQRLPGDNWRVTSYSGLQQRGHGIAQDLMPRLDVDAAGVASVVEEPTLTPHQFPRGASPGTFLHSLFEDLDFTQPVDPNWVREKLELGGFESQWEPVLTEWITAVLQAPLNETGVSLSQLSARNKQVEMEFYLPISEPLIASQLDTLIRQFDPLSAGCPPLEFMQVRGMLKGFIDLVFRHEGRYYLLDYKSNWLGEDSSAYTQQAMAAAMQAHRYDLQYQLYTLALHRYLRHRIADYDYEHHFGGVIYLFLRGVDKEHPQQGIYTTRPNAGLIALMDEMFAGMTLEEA

Nonstructural protein 1 = Nonstructural protein 1 (Influenza A virus, UniProt Q194T2); type: functional, Influenza A virus (A/California/07/2009(H1N1))
[7] = Counterscreen for AddAB inhibitors: absorbance-based bacterial cell-based high throughput dose response assay for inhibitors of bacterial viability. [Related pubchem assays (depositor defined):AID435030, AID449728, AID449731, AID488942, AID488955, AID488956]; type: functional
[8] = target: T3, Microphthalmia-associated transcription factor (Homo sapiens, UniProt O75030); test: TRPM1 promoter luciferase signal decrease, dose response, MITF inhibitor project, cell-based, SK-MEL-5, cherry-picked, set 3 (AID 493073); type: functional
T3 sequence (O75030 whole entry): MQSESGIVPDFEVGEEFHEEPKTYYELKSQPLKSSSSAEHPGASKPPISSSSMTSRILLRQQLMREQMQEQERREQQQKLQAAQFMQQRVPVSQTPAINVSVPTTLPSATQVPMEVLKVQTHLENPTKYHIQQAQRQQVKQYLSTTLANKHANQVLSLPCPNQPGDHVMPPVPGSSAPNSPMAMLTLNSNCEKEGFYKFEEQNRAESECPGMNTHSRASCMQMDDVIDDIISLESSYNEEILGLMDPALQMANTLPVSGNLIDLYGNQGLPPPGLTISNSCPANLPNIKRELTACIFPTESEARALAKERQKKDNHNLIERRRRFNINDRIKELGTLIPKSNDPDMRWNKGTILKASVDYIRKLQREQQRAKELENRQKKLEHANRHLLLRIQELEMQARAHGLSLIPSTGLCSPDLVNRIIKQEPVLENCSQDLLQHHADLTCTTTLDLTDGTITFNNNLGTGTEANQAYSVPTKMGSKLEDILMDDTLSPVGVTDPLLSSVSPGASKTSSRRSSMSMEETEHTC

Chain of Cytochrome P450 3A4 (P08684 whole entry): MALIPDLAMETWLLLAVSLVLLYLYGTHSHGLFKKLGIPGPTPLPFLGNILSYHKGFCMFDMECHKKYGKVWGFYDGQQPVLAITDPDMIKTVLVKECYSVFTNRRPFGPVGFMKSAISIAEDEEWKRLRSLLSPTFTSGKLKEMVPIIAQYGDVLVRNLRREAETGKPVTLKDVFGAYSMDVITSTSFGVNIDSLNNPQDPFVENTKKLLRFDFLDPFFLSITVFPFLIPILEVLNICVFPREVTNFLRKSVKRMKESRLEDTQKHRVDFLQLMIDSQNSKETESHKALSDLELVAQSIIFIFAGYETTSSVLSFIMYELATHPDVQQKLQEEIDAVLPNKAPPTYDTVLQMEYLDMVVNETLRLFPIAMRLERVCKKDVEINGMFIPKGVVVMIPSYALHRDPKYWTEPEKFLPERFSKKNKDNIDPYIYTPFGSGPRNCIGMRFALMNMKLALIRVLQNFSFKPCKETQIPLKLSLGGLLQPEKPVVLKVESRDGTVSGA
Chain of Cytochrome P450 2D6 (P10635 whole entry): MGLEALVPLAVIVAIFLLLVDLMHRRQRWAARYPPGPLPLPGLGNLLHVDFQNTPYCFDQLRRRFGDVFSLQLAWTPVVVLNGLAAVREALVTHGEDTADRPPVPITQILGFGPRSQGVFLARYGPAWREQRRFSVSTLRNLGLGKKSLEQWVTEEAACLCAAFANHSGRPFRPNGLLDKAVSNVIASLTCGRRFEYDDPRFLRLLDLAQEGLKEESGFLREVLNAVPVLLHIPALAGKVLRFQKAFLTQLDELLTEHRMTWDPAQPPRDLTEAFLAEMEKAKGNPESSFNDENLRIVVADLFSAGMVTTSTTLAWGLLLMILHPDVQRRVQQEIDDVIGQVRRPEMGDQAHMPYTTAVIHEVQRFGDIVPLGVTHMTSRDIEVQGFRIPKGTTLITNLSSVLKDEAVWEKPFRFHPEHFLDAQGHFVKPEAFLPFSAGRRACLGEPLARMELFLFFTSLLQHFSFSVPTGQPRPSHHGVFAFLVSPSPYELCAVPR
Chain of Beta-galactosidase (Q8VNN2 whole entry): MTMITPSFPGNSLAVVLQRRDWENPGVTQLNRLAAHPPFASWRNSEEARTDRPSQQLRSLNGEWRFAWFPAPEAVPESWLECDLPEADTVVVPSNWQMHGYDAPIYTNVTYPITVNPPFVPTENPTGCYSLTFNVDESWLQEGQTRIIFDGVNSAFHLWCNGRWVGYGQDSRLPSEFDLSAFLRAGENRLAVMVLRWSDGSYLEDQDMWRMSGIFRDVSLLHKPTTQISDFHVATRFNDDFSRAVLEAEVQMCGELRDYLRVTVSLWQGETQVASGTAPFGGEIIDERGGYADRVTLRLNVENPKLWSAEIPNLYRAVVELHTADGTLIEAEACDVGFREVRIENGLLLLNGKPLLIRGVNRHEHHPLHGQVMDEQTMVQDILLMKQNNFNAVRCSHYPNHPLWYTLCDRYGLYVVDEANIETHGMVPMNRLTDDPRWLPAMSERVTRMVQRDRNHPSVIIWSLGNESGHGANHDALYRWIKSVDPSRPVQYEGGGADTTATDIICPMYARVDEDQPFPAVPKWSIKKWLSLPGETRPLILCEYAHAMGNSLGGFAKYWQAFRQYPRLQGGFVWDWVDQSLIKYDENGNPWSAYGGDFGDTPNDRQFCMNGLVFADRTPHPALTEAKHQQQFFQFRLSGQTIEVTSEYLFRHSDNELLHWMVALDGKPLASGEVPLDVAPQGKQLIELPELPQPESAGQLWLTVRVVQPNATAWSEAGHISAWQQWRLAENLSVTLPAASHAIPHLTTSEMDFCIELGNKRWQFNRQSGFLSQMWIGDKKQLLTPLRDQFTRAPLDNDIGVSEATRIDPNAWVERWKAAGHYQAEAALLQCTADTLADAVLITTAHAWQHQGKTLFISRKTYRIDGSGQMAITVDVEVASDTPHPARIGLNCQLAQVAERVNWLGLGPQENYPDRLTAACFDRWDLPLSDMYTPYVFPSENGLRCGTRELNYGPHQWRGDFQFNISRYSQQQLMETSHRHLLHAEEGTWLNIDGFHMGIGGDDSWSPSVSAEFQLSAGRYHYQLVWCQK
Chain of Cytochrome P450 2C19 (P33261 whole entry): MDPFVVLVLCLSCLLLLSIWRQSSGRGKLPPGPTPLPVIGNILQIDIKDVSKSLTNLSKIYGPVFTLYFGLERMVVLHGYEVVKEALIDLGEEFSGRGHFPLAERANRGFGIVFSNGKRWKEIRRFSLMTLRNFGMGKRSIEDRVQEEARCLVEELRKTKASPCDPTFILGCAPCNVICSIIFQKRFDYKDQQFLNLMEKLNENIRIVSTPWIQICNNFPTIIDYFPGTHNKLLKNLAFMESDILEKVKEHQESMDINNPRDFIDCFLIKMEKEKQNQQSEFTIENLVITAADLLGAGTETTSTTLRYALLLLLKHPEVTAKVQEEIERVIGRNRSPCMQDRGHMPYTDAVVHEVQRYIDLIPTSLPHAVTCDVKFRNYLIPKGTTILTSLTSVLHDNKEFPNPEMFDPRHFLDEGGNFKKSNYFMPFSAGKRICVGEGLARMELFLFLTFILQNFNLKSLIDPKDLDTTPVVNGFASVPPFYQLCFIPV
Chain of SUMO E1/E2 (Q9UBE0 whole entry): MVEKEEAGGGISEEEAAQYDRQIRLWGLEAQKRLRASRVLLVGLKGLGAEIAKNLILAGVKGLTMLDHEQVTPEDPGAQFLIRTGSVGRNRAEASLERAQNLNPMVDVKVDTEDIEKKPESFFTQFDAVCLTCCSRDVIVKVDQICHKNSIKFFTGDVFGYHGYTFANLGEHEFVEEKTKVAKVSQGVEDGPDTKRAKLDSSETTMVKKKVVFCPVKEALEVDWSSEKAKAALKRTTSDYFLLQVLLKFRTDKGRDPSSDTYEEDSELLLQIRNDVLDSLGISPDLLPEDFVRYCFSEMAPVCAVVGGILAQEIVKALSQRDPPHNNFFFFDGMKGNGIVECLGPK
Chain of SUMO E1/E2 (Q9UBT2 whole entry): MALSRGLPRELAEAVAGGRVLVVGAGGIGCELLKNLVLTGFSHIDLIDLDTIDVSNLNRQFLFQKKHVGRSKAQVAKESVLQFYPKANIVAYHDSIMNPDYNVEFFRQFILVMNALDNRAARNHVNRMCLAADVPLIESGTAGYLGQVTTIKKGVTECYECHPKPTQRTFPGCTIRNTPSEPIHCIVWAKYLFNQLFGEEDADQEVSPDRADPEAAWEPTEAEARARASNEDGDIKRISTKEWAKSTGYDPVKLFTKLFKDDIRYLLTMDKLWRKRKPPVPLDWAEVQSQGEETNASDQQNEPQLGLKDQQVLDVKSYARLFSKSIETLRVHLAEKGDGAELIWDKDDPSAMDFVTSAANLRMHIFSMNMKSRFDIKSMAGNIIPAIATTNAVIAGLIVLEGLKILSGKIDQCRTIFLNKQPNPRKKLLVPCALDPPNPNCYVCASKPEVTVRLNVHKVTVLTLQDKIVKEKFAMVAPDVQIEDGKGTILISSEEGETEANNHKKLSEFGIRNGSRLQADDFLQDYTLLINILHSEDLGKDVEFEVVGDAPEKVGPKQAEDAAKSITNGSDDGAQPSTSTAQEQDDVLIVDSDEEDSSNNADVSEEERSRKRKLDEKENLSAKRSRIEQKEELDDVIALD
Chain of SUMO E1/E2 (P63279 whole entry): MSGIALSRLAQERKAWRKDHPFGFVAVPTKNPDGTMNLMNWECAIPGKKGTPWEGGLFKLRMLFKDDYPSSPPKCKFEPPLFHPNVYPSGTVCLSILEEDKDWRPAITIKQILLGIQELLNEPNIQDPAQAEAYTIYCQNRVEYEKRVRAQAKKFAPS
Chain of SUMO-activating enzyme (Q9UBE0 whole entry): as the sequence (Q9UBE0 whole entry) above
Chain of SUMO-activating enzyme (Q9UBT2 whole entry): as the sequence (Q9UBT2 whole entry) above
Chain of Tumor necrosis factor (P01375 whole entry, the tested form may be a part): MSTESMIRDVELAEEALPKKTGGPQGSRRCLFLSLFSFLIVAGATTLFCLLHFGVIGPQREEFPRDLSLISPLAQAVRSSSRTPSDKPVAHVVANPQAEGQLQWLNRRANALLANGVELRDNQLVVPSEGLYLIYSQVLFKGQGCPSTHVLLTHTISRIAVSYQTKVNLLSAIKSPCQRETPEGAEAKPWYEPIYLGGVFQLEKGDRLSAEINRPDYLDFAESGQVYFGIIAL
Chain of Nonstructural protein 1 (Q194T2 whole entry): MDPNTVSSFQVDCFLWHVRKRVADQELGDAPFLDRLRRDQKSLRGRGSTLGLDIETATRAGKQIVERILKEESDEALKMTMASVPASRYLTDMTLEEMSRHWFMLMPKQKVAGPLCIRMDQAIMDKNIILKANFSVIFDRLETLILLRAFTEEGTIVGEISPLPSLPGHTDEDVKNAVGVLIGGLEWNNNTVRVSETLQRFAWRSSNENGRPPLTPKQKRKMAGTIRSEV
Chain of Cytochrome P450 2C9 (P11712 whole entry): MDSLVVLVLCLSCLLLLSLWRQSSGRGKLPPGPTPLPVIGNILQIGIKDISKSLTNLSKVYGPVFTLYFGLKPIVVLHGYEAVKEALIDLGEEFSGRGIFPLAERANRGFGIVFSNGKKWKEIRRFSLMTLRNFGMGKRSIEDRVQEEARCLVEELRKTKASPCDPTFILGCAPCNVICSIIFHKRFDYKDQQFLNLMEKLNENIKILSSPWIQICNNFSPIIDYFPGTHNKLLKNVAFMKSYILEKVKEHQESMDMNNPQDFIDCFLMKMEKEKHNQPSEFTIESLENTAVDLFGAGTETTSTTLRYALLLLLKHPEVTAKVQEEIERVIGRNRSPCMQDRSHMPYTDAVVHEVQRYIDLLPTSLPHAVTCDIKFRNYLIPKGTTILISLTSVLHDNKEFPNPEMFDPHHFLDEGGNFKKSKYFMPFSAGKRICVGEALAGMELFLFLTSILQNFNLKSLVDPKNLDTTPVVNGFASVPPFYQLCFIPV

## COc1cccc(NC(=O)Nc2nnc(-c3ccccc3SCc3ccccc3)s2)c1
SUMO-activating enzyme
  IC50: 56.6 µM (active)

## O=C1C=CC(=O)N1c1ccc(OC(F)F)cc1
[1]
  AC50: 3.12 µM (active)
Beta-galactosidase
  IC50: > 66.6 µM (inactive)
[2]
  AC50: 1.65 µM (active)

## C/C(=N\NC(=O)COc1ccc([N+](=O)[O-])cc1)C(C)(C)C
Cytochrome P450 3A4
  AC50: 28.2 µM (inconclusive)
Cytochrome P450 2D6
  AC50: inconclusive

## CNS(=O)(=O)c1cccc(C(=O)OCC(=O)/C=C2/N(C)c3ccccc3C2(C)C)c1
[3]
  IC50: 2.64 µM (active)
[4]
  IC50: 1.64 µM (active)

## O=C(Nc1ccc(F)cc1)c1ccc(CN2CCc3ccccc3C2)cc1
Tumor necrosis factor
  IC50: 2.88 µM (active)
[5]
  IC50: 3.11 µM (active)
[6]
  IC50: > 80 µM (inactive)
HEK293
  IC50: > 20 µM (inactive)

## COc1cc(-c2n[nH]c(=S)n2/N=C/c2cccn2C)cc(OC)c1OC
SUMO E1/E2
  IC50: > 100 µM (inactive)

## COC(=O)[C@H]1[C@@H](c2ccccc2)[C@@]2(c3ccccc3)Oc3ccccc3[C@@]1(O)[C@@H]2O
Cytochrome P450 2C19
  AC50: 3.98 µM (inconclusive)
Cytochrome P450 3A4
  AC50: 3.16 µM (inconclusive)
Cytochrome P450 2D6
  AC50: inconclusive

## Cc1ccc(N=C(S)N2CCN(C(=O)C3CCCO3)CC2)c(C)c1 (stereo not drawn)
Cytochrome P450 3A4
  AC50: 22.4 µM (inconclusive)
Cytochrome P450 2D6
  AC50: inconclusive
Cytochrome P450 2C9
  AC50: inconclusive

## Oc1nncc(N/N=C/c2ccccn2)n1
Exodeoxyribonuclease V
  IC50: 27.5 µM (inactive)
Nonstructural protein 1
  IC50: 1.44 µM (active)
[7]
  IC50: 32.2 µM (inactive)
[8]
  AC50: 4.65 µM (active)

— ChEMBL document CHEMBL1201862, “PubChem BioAssay data set” (2004)
